Assay results taken from patent US20240197706A1, “METHODS OF IMPROVING THE PHARMACOKINETICS OF MIGALASTAT” (Amicus Therapeutics, Inc., priority 2022, published 2024).
Where two headings read alike, the source gives them in different places.

What was measured:
[1] = taken with food; cited from earlier work
[2] = AT1001-045 study: plasma migalastat bioavailability of 150 mg migalastat HCl capsule with caffeine and sweetener beverages relative to water; format: in vivo, human (healthy subjects); settings: 280 mL of coffee containing approximately 190 mg caffeine at the time of dosing, compared to water
[3] = as above; format: in vivo, human (healthy subjects); settings: for AUC0-t Ratio / AUC0-∞ Ratio / Cmax Ratio: percent scale; for Cmax / AUC(0-t) / AUC(0-inf) / Tmax / half-life: both sexes, human, plasma, po, 150 mg; for Cmax: read-out: Cmax GeoMean; for AUC(0-t): read-out: AUC0-t GeoMean; for AUC(0-inf): read-out: AUC0-∞ GeoMean; for Tmax: read-out: tmax Median; for half-life: read-out: t1/2 Mean (converted)
Protocol: The example describes the AT1001-045 study, which was an open-label study of the bioavailability, safety and tolerability of migalastat in combination with caffeine and sweeteners.
The primary objective was to evaluate plasma migalastat bioavailability of the 150 mg migalastat HCl capsule in a caffeinated beverage, a sucrose beverage, a combination caffeinated and sucrose beverage, an aspartame artificial sweetener beverage, and an acesulfame potassium artificial sweetener beverage relative to water in healthy subjects.
The primary endpoints were ANOVA comparisons of interest between each test treatment and reference treatment for Cmax, AUC0-t and AUC0-∞. The comparisons of interest were point estimate ratios and lower/upper 90% confidence intervals.
This was a single-center, single dose, randomized, open-label, 6-way crossover study. Each subject received a single oral dose of migalastat HCl 150 mg for each of 6 periods.
In randomized sequence, each subject received a 150 mg migalastat HCl capsule with a caffeinated beverage, a sucrose drink, a combination caffeinated and sucrose beverage, an aspartame artificial sweetener drink, an acesulfame potassium artificial sweetener drink, or water.
All study treatments were administered in the fasted condition (overnight+4 hours post-dose).
Each single dose administration was followed by a 72-hour PK sampling period which also served as the between-treatment washout interval.
Appropriate migalastat exposure ratios (Cmax and AUC) with corresponding 90% confidence intervals will be used to address the comparisons of interest: • Caffeine (test) vs. water (reference) • Sucrose (test) vs. water (reference) • Caffeine+Sucrose (test) vs. water (reference) • Aspartame (test) vs. water (reference) • Acesulfame K (test) vs. water (reference)
• Study Population: male and female healthy subjects 18 to 45 years of age. • Sample Size: 20 subjects balanced for gender. • Dose: A single 150 mg capsule of migalastat hydrochloride, provided as GALAFOLD®.
The following test treatments were prepared: • Caffeinated beverage: 8 oz of caffeinated tea; nothing added; administered warm (40 to 50 degrees C.) and consumed within 10 minutes • Sucrose drink: 8 oz sucrose solution prepared with 26 grams sucrose, chilled before drug administration, and consumed within 10 minutes • Equivalent to sucrose content in one 8 oz serving of cane sugar-containing Coca-Cola® • Caffeinated+Sucrose drink: 8 oz caffeinated/sucrose beverage, chilled before drug administration, and consumed within 10 minutes (e.g., Jolt®) • Aspartame: 8 oz aspartame solution prepared with 125 mg aspartame, chilled before drug administration, and consumed within 10 minutes • Equivalent to aspartame content in one 8 oz can of Diet Coke® • Acesulfame K: 8 oz acesulfame K solution prepared with 30 mg acesulfame K, chilled before drug administration, and consumed within 10 minutes • Equivalent to acesulfame K content in one 8 oz can of Diet Coke® or Coca-Cola® Zero Sugar

[4] = Acesulfame K (test) vs. water (reference)
[5] = Aspartame (test) vs. water (reference)
[6] = Caffeine (test) vs. water (reference)
[7] = Caffeine + Sucrose (test) vs. water (reference)
[8] = Sucrose (test) vs. water (reference)
[9] = single oral 150 mg migalastat HCl capsule, fasted, with Acesulfame K drink
[10] = single oral 150 mg migalastat HCl capsule, fasted, with Aspartame drink
[11] = single oral 150 mg migalastat HCl capsule, fasted, with Caffeine + Sucrose drink
[12] = single oral 150 mg migalastat HCl capsule, fasted, with Caffeine beverage
[13] = single oral 150 mg migalastat HCl capsule, fasted, with Sucrose drink
[14] = single oral 150 mg migalastat HCl capsule, fasted, with water (reference)

mean reduction in Cmax [2]: 60%
mean reduction in AUC0-∞ ([3]; 280 mL of coffee containing approximately 190 mg caffeine at the time of dosing, compared to water): 57%
AUC0-t Ratio [3, 4]: 93.9
AUC0-∞ Ratio [3, 4]: 96.1
Cmax Ratio [3, 4]: 92.3
AUC0-t Ratio [3, 5]: 104.9
AUC0-∞ Ratio [3, 5]: 102.9
Cmax Ratio [3, 5]: 103.3
AUC0-t Ratio [3, 6]: 43.1
AUC0-∞ Ratio [3, 6]: 45.8
Cmax Ratio [3, 6]: 39.9
AUC0-t Ratio [3, 7]: 46.9
AUC0-∞ Ratio [3, 7]: 47.7
Cmax Ratio [3, 7]: 45.9
AUC0-t Ratio [3, 8]: 92.2
AUC0-∞ Ratio [3, 8]: 91.8
Cmax Ratio [3, 8]: 95.3
Cmax ([3]; single oral 150 mg migalastat HCl capsule, fasted, healthy subjects, with water (reference)): 1330 ng/mL
AUC(0-t) [3, 9]: 8120 ng·h/mL
AUC(0-inf) [3, 9]: 8640 ng·h/mL
Cmax [3, 9]: 1220 ng/mL
Tmax [3, 9]: 4 h
AUC(0-t) [3, 10]: 9080 ng·h/mL
AUC(0-inf) [3, 10]: 9080 ng·h/mL
Cmax [3, 10]: 1370 ng/mL
half-life [3, 10]: 8.1 h
Tmax [3, 10]: 4 h
AUC(0-t) [3, 11]: 4050 ng·h/mL
AUC(0-inf) [3, 11]: 4270 ng·h/mL
Cmax [3, 11]: 611 ng/mL
half-life [3, 11]: 8.8 h
Tmax [3, 11]: 3 h
AUC(0-t) [3, 12]: 3720 ng·h/mL
AUC(0-inf) [3, 12]: 4100 ng·h/mL
Cmax [3, 12]: 529 ng/mL
half-life [3, 12]: 10.2 h
Tmax [3, 12]: 3 h
AUC(0-t) [3, 13]: 7960 ng·h/mL
AUC(0-inf) [3, 13]: 8030 ng·h/mL
Cmax [3, 13]: 1260 ng/mL
half-life [3, 13]: 7.8 h
Tmax [3, 13]: 3 h
AUC(0-t) [3, 14]: 8620 ng·h/mL
AUC(0-inf) [3, 14]: 8610 ng·h/mL
half-life [3, 14]: 7.5 h
Tmax [3, 14]: 4 h
rate of absorption (tmax) effect ([3]; coffee or sweetened beverages in comparison to water): not affected
AUC0-∞ GeoMean [3, 9]: 8621 ng·h/mL
t1/2 Mean [3, 9]: 7.2 h
AUC0-∞ GeoMean [3, 10]: 9043 ng·h/mL
AUC0-∞ GeoMean [3, 13]: 8008 ng·h/mL
AUC0-∞ GeoMean [3, 14]: 8570 ng·h/mL
mean difference in AUC (decrease) ([3]; sucrose vs water): 8%
bioequivalence to water (90% CI within 80% to 125%) ([3]; with acesulfame K): bioequivalent to water
bioequivalence to water (90% CI within 80% to 125%) ([3]; with aspartame): bioequivalent to water
bioequivalence to water (90% CI within 80% to 125%) ([3]; with sucrose): very close to bioequivalent
Compound: OC[C@H]1NC[C@H](O)[C@@H](O)[C@H]1O [migalastat, (2R,3S,4R,5S)-2-(hydroxymethyl) piperdine-3,4,5-triol]
decrease in migalastat exposure [1]: approximately 40%
